# Data from ChEMBL document CHEMBL1125413 (J Med Chem, 1992).
# Tests used:
# [1] = molecular target: T1, Sodium-dependent dopamine transporter (Rattus norvegicus, UniProt P23977)
# [2] = molecular target: T1, Sodium-dependent dopamine transporter; remark: listed apart in the source
# [3] = molecular target: T1, Sodium-dependent dopamine transporter; test: Inhibition of [3H]dopamine uptake at dopamine transporter.
# [4] = molecular target: T1, Sodium-dependent dopamine transporter; test: Inhibition of [3H]-dopamine uptake at dopamine transporter.
# [5] = molecular target: T1, Sodium-dependent dopamine transporter; test: Inhibition of [3H]mazindol binding to the dopamine transporter.
# [6] = molecular target: T1, Sodium-dependent dopamine transporter; test: Inhibition of [3H]BTCP binding to the dopamine transporter.
# [7] = molecular target: T1, Sodium-dependent dopamine transporter; test: Potency for the inhibition of [3H]WIN-35428 binding to the dopamine transporter
# [8] = molecular target: T1, Sodium-dependent dopamine transporter; test: Inhibition of [3H]WIN-35428 binding to the dopamine transporter
# [9] = molecular target: T1, Sodium-dependent dopamine transporter; test: Inhibition of [3H]GBR-12935 binding to the dopamine transporter.
# [10] = molecular target: T1, Sodium-dependent dopamine transporter; test: Inhibition of [3H]cocaine binding to the dopamine transporter.
# [11] = molecular target: T1, Sodium-dependent dopamine transporter; test: Inhibition of dopamine uptake at dopamine transporter.
# [12] = molecular target: T1, Sodium-dependent dopamine transporter; test: Inhibition of [3H]dopamine uptake at the dopamine transporter.
# [13] = molecular target: T1, Sodium-dependent dopamine transporter; remark: listed apart in the source
# T1 sequence (P23977 whole entry): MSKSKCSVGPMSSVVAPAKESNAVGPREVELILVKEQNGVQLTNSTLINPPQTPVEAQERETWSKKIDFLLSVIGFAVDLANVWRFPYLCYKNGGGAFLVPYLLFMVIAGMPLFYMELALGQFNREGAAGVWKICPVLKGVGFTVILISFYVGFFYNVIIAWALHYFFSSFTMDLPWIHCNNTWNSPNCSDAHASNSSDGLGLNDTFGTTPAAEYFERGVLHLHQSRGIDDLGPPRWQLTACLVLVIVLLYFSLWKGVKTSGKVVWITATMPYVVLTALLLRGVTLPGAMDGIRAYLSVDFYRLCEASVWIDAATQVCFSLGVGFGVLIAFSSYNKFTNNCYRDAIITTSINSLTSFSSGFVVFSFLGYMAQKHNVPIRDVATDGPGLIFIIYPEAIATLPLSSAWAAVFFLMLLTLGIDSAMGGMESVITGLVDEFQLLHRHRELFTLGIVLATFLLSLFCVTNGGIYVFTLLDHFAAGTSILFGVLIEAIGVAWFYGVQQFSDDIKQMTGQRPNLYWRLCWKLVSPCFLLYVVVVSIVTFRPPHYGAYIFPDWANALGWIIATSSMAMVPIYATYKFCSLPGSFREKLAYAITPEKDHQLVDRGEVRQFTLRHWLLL
structure (smiles),measurement,setting,value
COC(=O)C1C2CC[C@H](C[C@@H]1OC(=O)Nc1cccc([N+](=O)[O-])c1)N2C (stereo partly specified),IC50,[1],0.33 µM
same,IC50,[2],0.037 µM
same,IC50,[3],0.178 µM
COC(=O)C1C2CC[C@H](C[C@@H]1OC(=O)c1ccccc1)[N+]2(C)C (stereo partly specified),IC50,[4],0.014 µM
same,IC50,[5],20 µM
same,IC50,[6],0.008 µM
same,IC50,[7],10.7 µM
COC(=O)C1C2CC[C@H](C[C@@H]1OC(=O)c1ccc(N=[N+]=[N-])c(I)c1)N2C (stereo partly specified),IC50,[3],0.8 µM
CN1C2CC[C@@H]1C[C@H](OC(=O)c1ccccc1)C2C(=O)OCCc1ccc(N)cc1 (stereo partly specified),IC50,[8],0.071 µM
COC(=O)C1C2CC[C@H](C[C@@H]1OC(=O)c1ccc(N)cc1)N2C (stereo partly specified),IC50,[5],3.04 µM
same,IC50,[7],1.23 µM
CN1C2CC[C@@H]1C[C@H](O)C2C(=O)O (stereo partly specified),IC50,[5],> 1000 µM
same,IC50,[1],0.0047 µM
CN1C2CC[C@@H]1C[C@H](OC(=O)c1ccc(N)cc1)C2C(=O)O (stereo partly specified),IC50,[4],0.035 µM
same,IC50,[5],4.51 µM
same,IC50,[1],0.009 µM
same,IC50,[7],8.25 µM
COC(=O)C1C2CC[C@H](C[C@@H]1c1ccc(F)cc1)N2 (stereo partly specified),IC50,[2],0.036 µM
COC(=O)C1C2CC[C@H](C[C@@H]1OC(=O)c1ccccc1)N2Cc1ccccc1 (stereo partly specified),IC50,[9],0.25 µM
same,IC50,[8],0.668 µM
same,IC50,[10],0.02 µM
same,IC50,[6],0.14 µM
same,IC50,[3],0.077 µM
COC(=O)[C@@H]1C2CC[C@H](C[C@@H]1c1ccccc1)N2C,IC50,[7],0.561 µM
CN1[C@@H]2CC[C@H]1C[C@H](OC(=O)c1ccccc1)C2,IC50,[10],3.3 µM
same,IC50,[5],15 µM
same,IC50,[11],186 µM
same,IC50,[2],23 µM
same,IC50,[12],110 µM
COC(=O)[C@@H]1C2CC[C@H](C[C@@H]1c1ccc(N=[N+]=[N-])cc1)N2C,IC50,[8],0.002 µM
same,IC50,[11],0.2 µM
COC(=O)C1C2CC[C@H](C[C@H]1c1ccc(C)cc1)N2C (stereo partly specified),IC50,[5],0.005 µM
same,IC50,[7],0.002 µM
same,IC50,[3],0.11 µM
c1ccc2sc(C3(N4CCCCC4)CCCCC3)cc2c1,IC50,[6],0.005 µM
same,IC50,[1],0.02 µM
same,IC50,[13],0.002 µM
same,IC50,[2],0.042 µM
COC(=O)C1C2CC[C@H](C[C@@H]1c1ccc(I)cc1)N2C (stereo partly specified),IC50,[7],0.001 µM
CC[C@H](C)[C@H](NC(=O)[C@@H](NC[C@H](CC(C)C)NC(=O)[C@H](Cc1c[nH]cn1)NC(=O)[C@H](Cc1ccccc1)NC(=O)[C@]1(C)CCCN1C(=O)OC(C)(C)C)C(C)C)C(=O)NCc1ccccn1,IC50,[4],0.029 µM
same,IC50,[5],0.178 µM
same,IC50,[1],0.093 µM
same,IC50,[3],2.48 µM
COC(=O)C1C2CC[C@H](C[C@@H]1OC(=O)c1cccc(N=C=S)c1)N2C (stereo partly specified),IC50,[1],0.072 µM
same,IC50,[7],1.46 µM
O=C(O[C@H]1C[C@H]2CCC(N2)C1C(=O)O)c1ccccc1 (stereo partly specified),IC50,[10],78.2 µM
same,IC50,[5],342 µM
COC(=O)C1C2CC[C@H](C[C@@H]1c1ccccc1)N2 (stereo partly specified),IC50,[5],0.36 µM
same,IC50,[2],0.086 µM
CN1C2CC[C@@H]1C[C@H](c1ccc(Cl)cc1)C2C(=O)OCCc1ccc(N=[N+]=[N-])c(I)c1 (stereo partly specified),IC50,[3],1.4 µM
CNC(=O)C1C2CC[C@H](C[C@@H]1OC(=O)c1ccccc1)N2C (stereo partly specified),IC50,[4],2 µM
C=CCN1C2CC[C@@H]1C[C@H](OC(=O)c1ccccc1)C2C(=O)OC (stereo partly specified),IC50,[2],1.02 µM
same,IC50,[3],2.5 µM
COC(=O)C1C2CC[C@H](C[C@@H]1OC(=O)c1ccc(N=C=S)cc1)N2C (stereo partly specified),IC50,[1],0.276 µM
same,IC50,[7],1.05 µM
same,IC50,[3],2.78 µM
COC(=O)[C@@H]1C2CC[C@H](C[C@@H]1c1ccc(N)cc1)N2C,IC50,[10],0.192 µM
same,IC50,[11],0.557 µM
COC(=O)C1C2CC[C@H](C[C@@H]1c1ccc(Cl)cc1)N2C (stereo partly specified),IC50,[8],0.001 µM
same,IC50,[5],0.002 µM
same,IC50,[11],0.03 µM
COC(=O)C1C2CC[C@H](C[C@@H]1O)N2C (stereo in doubt; 18),IC50,[5],62 µM
COC(=O)C1C2CC[C@H](C[C@@H]1OC(=O)c1ccccc1)N2 (stereo in doubt; 22),IC50,[5],1.21 µM
same,IC50,[1],0.092 µM
same,IC50,[7],0.303 µM
same,IC50,[2],0.414 µM
COC(=O)C1C2CC[C@H](C[C@@H]1OC(=O)c1ccccc1)N2 (stereo in doubt; 23),IC50,[2],0.27 µM
same,IC50,[3],2.5 µM
COC(=O)C1C2CC[C@H](C[C@@H]1O)N2C (stereo in doubt; 31),IC50,[5],87 µM
COC(=O)[C@@H]1C2CC[C@H](C[C@@H]1c1ccccc1)N2C (stereo in doubt; 47),IC50,[5],0.119 µM
same,IC50,[2],0.044 µM
same,IC50,[3],0.96 µM
COC(=O)[C@@H]1C2CC[C@H](C[C@@H]1c1ccccc1)N2C (stereo in doubt; 49),IC50,[2],0.022 µM
same,IC50,[3],1.33 µM
COC(=O)[C@@H]1C2CC[C@H](C[C@@H]1c1ccccc1)N2C (stereo in doubt; 50),IC50,[2],32 µM
same,IC50,[3],200 µM
COC(=O)[C@@H]1C2CC[C@H](C[C@@H]1c1ccccc1)N2C (stereo in doubt; 68),IC50,[8],2.9 µM
same,IC50,[10],2.6 µM
same,IC50,[5],385 µM
COC(=O)[C@@H]1C2CC[C@H](C[C@@H]1c1ccccc1)N2C (stereo in doubt; 70),IC50,[10],1.2 µM
same,IC50,[11],2.1 µM
